Assay results taken from patent publication US10201546B2, “Quinolinyl modulators of RORγt” (Janssen Pharmaceutica NV, priority 2013, dated 2019).
Where a name gives a salt, the structure may show the parent alone. Read-outs that look alike come from different tables or passages of the source.

Legend:
[1] = test system: IL-17 production by CD4+ T cells under conditions which favor Th17 differentiation; assay: Human Th17 assay (IL-17 production by CD4 T cells); assay type: cell-based
Method: The human Th17 assay tests the effect of RORγt modulatory compounds on IL-17 production by CD4 T cells under conditions which favor Th17 differentiation. Total CD4^+ T cells were isolated from the peripheral blood mononuclear cells (PBMC) of healthy donors using a CD4^+ T cell isolation kit II, following the manufacturer's instructions (Miltenyi Biotec). […] 50 μL of compound at titrated concentrations in DMSO were added into each well at final DMSO concentration at 0.2%. Cells were incubated for 1 hour, then 50 μL of Th17 cell differentiation medium was added to each well. The final concentrations of antibodies and cytokines (R&D Systems) in differentiation medium were: 3×10^6/mL anti-CD3/CD28 beads (prepared using human T cell activation/expansion kit, Miltenyi Biotec), 10 μg/mL anti-IL4, 10 μg/mL anti-IFNγ, 10 ng/mL IL113, 10 ng/mL IL23, 50 ng/mL IL6, 3 ng/mL TGFβ and 20 U/mL IL2. Cells were cultured at 37° C. and 5% CO2 for 3 days. Supernatants were collected and the accumulated IL-17 in culture was measured by using MULTI-SPOT® Cytokine Plate following manufacture's instruction (Meso Scale Discovery). The plate was read using Sector Imager 6000, and IL-17 concentration was extrapolated from the standard curve. The IC50s were determined by GraphPad.

[2] = target: human RORγt ligand binding domain (RORγt LBD) (Homo sapiens (Human), UniProt P51449); assay: RORγt ThermoFluor assay (thermal shift, binding affinity Kd); conditions: read-out: ThermoFluor Assay, Kd
Chain of human RORγt ligand binding domain (RORγt LBD) (P51449 other isoform, or with tags, fused parts or gaps): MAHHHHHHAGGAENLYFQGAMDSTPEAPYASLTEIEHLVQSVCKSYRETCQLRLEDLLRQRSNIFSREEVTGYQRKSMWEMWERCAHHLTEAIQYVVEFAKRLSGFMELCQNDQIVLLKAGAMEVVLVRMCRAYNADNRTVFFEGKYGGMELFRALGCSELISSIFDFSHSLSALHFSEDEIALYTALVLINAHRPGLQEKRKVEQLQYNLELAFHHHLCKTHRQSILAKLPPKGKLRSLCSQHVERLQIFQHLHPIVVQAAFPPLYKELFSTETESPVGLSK

[3] = target: human RORγt LBD fused to the DNA binding domain of the GAL4 protein (Homo sapiens (Human), UniProt P51449); assay: RORγt (LBD) reporter assay in HEK293T cells; assay type: cell-based; set-up: RORγt (LBD) Reporter Assay, % inhibition: dose or concentration left out as unconfirmed
Chain of human RORγt LBD fused to the DNA binding domain of the GAL4 protein (P51449 258-518): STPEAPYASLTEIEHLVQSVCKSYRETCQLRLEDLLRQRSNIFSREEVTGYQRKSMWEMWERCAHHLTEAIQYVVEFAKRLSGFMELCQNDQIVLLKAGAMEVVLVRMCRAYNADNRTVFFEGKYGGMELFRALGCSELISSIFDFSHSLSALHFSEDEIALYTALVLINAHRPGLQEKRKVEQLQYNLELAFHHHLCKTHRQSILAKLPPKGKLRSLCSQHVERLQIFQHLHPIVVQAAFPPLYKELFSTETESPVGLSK

SMILES | IC50 ([1]; Homo sapiens) | further results
CC(C)c1c(Cl)nc2ccc(C(O)(c3cccnc3)c3cccc(Cl)c3)cc2c1Cl (stereo not shown) [Example 19, (3-Chlorophenyl) [2,4-dichloro-3-(1-methylethyl)quinolin-6-yl]pyridin-3-ylmethanol.TFA] | 1300 nM | 
Cn1cncc1C(O)(c1ccc(Cl)cc1)c1ccc2nc(N3CCC3)c(OCC(F)(F)F)c(Cl)c2c1 (single isomer, unassigned) [Example 90c, [2-Azetidin-1-yl-4-chloro-3-(2,2,2-trifluoroethoxy)quinolin-6-yl](4-chlorophenyl)(1-methyl-1H-imidazol-5-yl)methanol] | 200 nM | 
COc1nc2ccc([C@@](O)(c3ccccc3)C3CCN(C(C)=O)CC3)cc2c(Cl)c1CC1CCOCC1 [Example 4b] |  | IC50 [1]: > 6000 nM; Kd [2]: 9 nM; IC50 [3]: > 6000 nM; RORγt (LBD) Reporter Assay, % inhibition @ 6 μM [3]: 42%
CC(C)Oc1c(N2CCC2)nc2ccc(C(O)(c3ccc(Cl)cc3)c3cncn3C)cc2c1Cl (single isomer, unassigned) [Example 94c, [2-Azetidin-1-yl-4-chloro-3-(1-methylethoxy)quinolin-6-yl](4-chlorophenyl)(1-methyl-1H-imidazol-5-yl)methanol] | 380 nM | 
CCOc1c(OC)nc2ccc(C(O)(c3ccc(C(F)(F)F)nc3)c3cncn3C)cc2c1Cl (single isomer, unassigned) [Example 91c, (4-Chloro-3-ethoxy-2-methoxyquinolin-6-yl)(1-methyl-1H-imidazol-5-yl)[6-(trifluoromethyl)pyridin-3-yl]methanol] | 520 nM | 
COc1nc2ccc(C(O)(c3ccc(C(F)(F)F)nc3)c3cncn3C)cc2c(Cl)c1OC(C)C (single isomer, unassigned) [Example 95b, [4-Chloro-2-methoxy-3-(1-methylethoxy)quinolin-6-yl](1-methyl-1H-imidazol-5-yl)[6-(trifluoromethyl)pyridin-3-yl]methanol] | 61 nM | 
COc1nc2ccc(C(O)(c3ccnc(C(F)(F)F)c3)c3cncn3C)cc2c(Cl)c1CN1CCC(C(F)(F)F)CC1 (single isomer, unassigned) [Example 100c, (4-Chloro-2-methoxy-3-((4-(trifluoromethyl)piperidin-1-yl)methyl)quinolin-6-yl)(1-methyl-1H-imidazol-5-yl)(2-(trifluoromethyl)pyridin-4-yl)methanol] |  | IC50 ([1]; Homo sapiens, CD4+ T): 7.6 nM; RORγt (LBD) Reporter Assay, % inhibition @ 6 μM [3]: 100%
COc1nc2ccc(C(O)(c3ccccc3)C3CCN(C(C)=O)CC3)cc2c(Cl)c1OC(C)C (single isomer, unassigned) [Example 84b, (1-Acetylpiperidin-4-yl)[4-chloro-2-methoxy-3-(1-methylethoxy)quinolin-6-yl]phenylmethanol] | 5.4 nM | 
COc1nc2ccc(C(O)(c3cnc(C)n3C)C3CN(C(C)=O)C3)cc2c(Cl)c1CN1CCC(C(F)(F)F)CC1 (single isomer, unassigned) [Example 124c, 1-(3-((4-Chloro-2-methoxy-3-((4-(trifluoromethyl)piperidin-1-yl)methyl)quinolin-6-yl)(1,2-dimethyl-1H-imidazol-5-yl)(hydroxy)methyl)azetidin-1-yl)ethanone] |  | IC50 [1]: 35 nM
COc1nc2ccc(C(O)(c3sc(C)nc3C)c3cnnn3C)cc2c(Cl)c1C (single isomer, unassigned) [Example 13c, (4-Chloro-2-methoxy-3-methylquinolin-6-yl)(2,4-dimethylthiazol-5-yl)(1-methyl-1H-1,2,3-triazol-5-yl)methanol] | 65 nM | 
COc1nc2ccc(C(O)(c3ccc(C(F)(F)F)nc3)c3cncn3C)cc2c(Cl)c1OCC1CC1 (single isomer, unassigned) [Example 88c, [4-Chloro-3-(cyclopropylmethoxy)-2-methoxyquinolin-6-yl](1-methyl-1H-imidazol-5-yl)[6-(trifluoromethyl)pyridin-3-yl]methanol] | 310 nM | 
COc1nc2ccc(C(O)(c3ccc(Cl)cc3)c3cncn3C)cc2c(Cl)c1OCC(F)(F)F (single isomer, unassigned) [Example 86c, [4-Chloro-2-methoxy-3-(2,2,2-trifluoroethoxy)quinolin-6-yl](4-chlorophenyl)(1-methyl-1H-imidazol-5-yl)methanol] | 21 nM | 
COc1nc2ccc(C(O)(c3ccc(C)nc3C)c3cnnn3C)cc2c(Cl)c1CC(F)(F)F (single isomer, unassigned) [Example 143c, [4-Chloro-2-methoxy-3-(2,2,2-trifluoroethyl)quinolin-6-yl](2,6-dimethylpyridin-3-yl)(1-methyl-1H-1,2,3-triazol-5-yl)methanol] |  | IC50 ([1]; Homo sapiens, CD4+ T): 370 nM; RORγt (LBD) Reporter Assay, % inhibition [3]: 100%
COc1nc2ccc(C(O)(c3ccc(Cl)cc3)c3cncn3C)cc2c(Cl)c1OC(C)C (single isomer, unassigned) [Example 99b, [4-Chloro-2-methoxy-3-(1-methylethoxy)quinolin-6-yl](4-chlorophenyl)(1-methyl-1H-imidazol-5-yl)methanol] | 1200 nM | 
COc1nc2ccc(C(O)(c3cnnn3C)c3cnc(C)n3C)cc2c(Cl)c1CN1CCC(C(F)(F)F)CC1 (single isomer, unassigned) [Example 106c, (4-Chloro-2-methoxy-3-((4-(trifluoromethyl)piperidin-1-yl)methyl)quinolin-6-yl)(1,2-dimethyl-1H-imidazol-5-yl)(1-methyl-1H-1,2,3-triazol-5-yl)methanol] |  | IC50 [1]: 1.4 nM; RORγt (LBD) Reporter Assay, % inhibition @ 6 μM [3]: 100%
COc1nc2ccc(C(O)(c3ccc(Cl)cc3)c3cncn3C)cc2c(Cl)c1CN1CCC(n2cccn2)CC1 (single isomer, unassigned) [Example 101c, (3-((4-(1H-Pyrazol-1-yl)piperidin-1-yl)methyl)-4-chloro-2-methoxyquinolin-6-yl)(4-chlorophenyl)(1-methyl-1H-imidazol-5-yl)methanol] | 360 nM | 
COc1nc2ccc(C(O)(c3cnc(C)n3C)c3cnc(C)n3C)cc2c(Cl)c1CN1CCC(C(F)(F)F)CC1 [Example 111, (4-Chloro-2-methoxy-3-((4-(trifluoromethyl)piperidin-1-yl)methyl)quinolin-6-yl)bis(1,2-dimethyl-1H-imidazol-5-yl)methanol] | 17 nM | 
CC(C)(C)c1c(/C=C/c2ccccc2)nc2ccc(C(O)(c3cccnc3)c3cccc(Cl)c3)cc2c1Cl (stereo not shown) [Example 27, {3-tert-Butyl-4-chloro-2-[(E)-2-phenylethenyl]quinolin-6-yl}(3-chlorophenyl)pyridin-3-ylmethanol.TFA] | ~3000 nM | 
Cn1cncc1C(O)(c1ccc(C(F)(F)F)nc1)c1ccc2nc(N3CCC3)c(OCC(F)(F)F)c(Cl)c2c1 (single isomer, unassigned) [Example 89c, [2-Azetidin-1-yl-4-chloro-3-(2,2,2-trifluoroethoxy)quinolin-6-yl](1-methyl-1H-imidazol-5-yl)[6-(trifluoromethyl)pyridin-3-yl]methanol] | 79 nM | 
COc1nc2ccc(C(O)(c3ccccc3)C3CCN(C(C)=O)CC3)cc2c(Cl)c1C1CCOCC1 (single isomer, unassigned) [Example 7b, 1-(4-((4-Chloro-2-methoxy-3-(tetrahydro-2H-pyran-4-yl)quinolin-6-yl)(hydroxy)(phenyl)methyl)piperidin-1-yl)ethanone] | 210 nM | 
Cc1nc(C)c(C(O)(c2ccc3nc(N4CCC4)c(OC(C)C)c(Cl)c3c2)c2cnnn2C)s1 (single isomer, unassigned) [Example 82c, [2-Azetidin-1-yl-4-chloro-3-(1-methylethoxy)quinolin-6-yl](2,4-dimethyl-1,3-thiazol-5-yl)(1-methyl-1H-1,2,3-triazol-5-yl)methanol] | 1.2 nM | 
COc1nc2ccc(C(O)(c3cnc(C)n3C)C3CN(C(C)=O)C3)cc2c(Cl)c1CN1CCC(C(F)(F)F)CC1 (single isomer, unassigned) [Example 124b, 1-(3-((4-Chloro-2-methoxy-3-((4-(trifluoromethyl)piperidin-1-yl)methyl)quinolin-6-yl)(1,2-dimethyl-1H-imidazol-5-yl)(hydroxy)methyl)azetidin-1-yl)ethanone] |  | IC50 [1]: > 6000 nM
